Assay results taken from the NIST ThermoML archive (doi:10.1016/j.fluid.2006.06.024).
Numbers after ± are expanded uncertainties.

Experiment: activity coefficient (dimensionless); of the first substance listed, at infinite dilution; xn = mol fraction of the nth substance listed
Conditions: Gas, Chromatography, x1 = 0

Row | SMILES | activity coefficient (374 K) | activity coefficient (393.3 K) | activity coefficient (412.5 K) | activity coefficient (375.2 K) | activity coefficient (394.8 K) | activity coefficient (412.6 K)
1 | C=CC=C [1,3-butadiene] + CO | 5 ± 0.2 | 4.7 ± 0.2 | 4.2 ± 0.2 | – | – | –
2 | C/C=C/C [(E)-2-butene] + CO | – | – | – | 7.3 ± 0.3 | 6.6 ± 0.3 | 6 ± 0.3
3 | C=CCC [1-butene] + CO | 7 ± 0.3 | – | 5.6 ± 0.3 | – | 6.1 ± 0.3 | –
4 | C=C(C)C [2-methylpropene] + CO | 6.5 ± 0.3 | 6 ± 0.3 | 5.4 ± 0.3 | – | – | –
